Laboratory results taken from patent US20120282296A1, “METHODS FOR IMPROVING THE DESIGN, BIOAVAILABILITY, AND EFFICACY OF DIRECTED SEQUENCE POLYMER COMPOSITIONS VIA SERUM PROTEIN-BASED DETECTION OF DIRECTED SEQUENCE POLYMER COMPOSITIONS” (ARES TRADING SA, priority 2009, published 2012).

Tests used:
[1] = tested on: monocyte cell line RAW264.7; test: CCL22 release bioassay in the monocyte cell line RAW264.7; format: cell-based
Description: Following synthesis of different DSP compositions, for example by solid phase synthesis or by solution phase synthesis, the individual lots or batches made by the same manufacturing process, and individual batches of mixtures manufactured by different processes may be tested and compared for variation using bioassays. Depending on the indication of the DSP composition, appropriate bioassays include the release of CCL22 by the monocyte cell line RAW264.7, ex vivo proliferation assays, and measuring the binding of serum proteins to peptides in the DSP composition. Using these bioassays, one may determine subsets of peptides or even individual peptides that are present in any given process or lot. Processes and lots of DSP compositions will be compared to determine whether the same subsets of peptides and/or types of peptides are consistently represented across the different processes and lots.

[2] = various species, including man; cited from earlier work
CCL22 = test: Acute release of CCL22 (MDC) in serum or plasma after SC YEAK administration in mice; format: in vivo
[3] = YEAK in serum of mice after IV or SC dosing, detected by anti-YEAK ELISA; format: in vivo
[4] = tested on: Ig fraction of rabbit polyserum; test: ELISA with Ig fraction of rabbit polyserum; format: binding
[5] = mice dosed IV 4 mg/kg or SC 21 mg/kg, route for this value not stated

Substance	CCL22 release by RAW264.7 cells [1]	persistence in serum after subcutaneous administration [2]	relation between dose administered SC and observed maximum CCL22 plasma concentration (CCL22)	maximum serum concentration [3, 5]	time of maximum serum concentration post dosing [3, 5]	detection in serum at 2 hours post-dosing ([3]; mice, 2 hours post-dosing)	interaction with / recognition by Ig fraction of rabbit polyserum [4]
glatiramer acetate [Copaxone]	released CCL22 in a concentration dependent manner	can be detected in serum of various species, including man, several hours after subcutaneous administration	linear correlation	1800 ng/mL	around 15 min	still detected	interacts strongly
plovamer [PI-2301]		can be detected in serum of various species, including man, several hours after subcutaneous administration					
